Assay results published in PMC3260434 (Journal of Molecular Neuroscience, 2011).
No end group written: not given here.

Columns and labels:
[1] = tested on: primary neuronal cell cultures from rat cerebral cortex; assay: Assay of cyclic AMP formation; assay type: cell-based; details: for Increase in cyclic AMP production over the basal level: forskolin 1 μM, PACAP27 0.1 μM, VIP 3 μM, rat neuronal cell cultures
OX2R = details: heterologous expression systems; ref Sakurai et al. [1998]; Ammoun et al. [2003]; cited from earlier work
[2] = tested on: astrocyte cultures from rat cerebral cortex; details: ref Woldan-Tambor et al. [2011]; cited from earlier work

Compound	Increase in cyclic AMP production over the basal level [1]	other results
VIP: vasoactive intestinal peptide (human, porcine, and rat) (HSDAVFTDNYTRLRKQMAVKKYLNSILN; ends and bridges not checked; UniProt P01282 125-152, looked up)	three- to fivefold over the basal level	
orexin B: neuropeptide derived from preproorexin; literature affinity only		Affinity of OX2R for orexins A and B (OX2R): equal affinity
[Ala^11-D-Leu^15]orexin B		Effect on basal cyclic AMP accumulation ([1]; 0.001–1 μM, cultured rat cortical neurons, data not shown): No significant effects
orexin A: neuropeptide, an agonist of OX1R and OX2R; from NeoMPS (QPLPDCCRQKTCSCRLYELLHGAGNHAAGILTL; ends and bridges not checked; cysteine pairing not given here; UniProt O43612 34-66, looked up)		Effect on cyclic AMP synthesis in astrocyte cultures [2]: stimulatory effect
C=C[C@@]1(C)CC(=O)[C@]2(O)[C@@]3(C)[C@@H](O)CCC(C)(C)[C@@H]3[C@H](O)[C@H](OC(C)=O)[C@@]2(C)O1 [forskolin]	three- to fivefold over the basal level	
PACAP27	three- to fivefold over the basal level	
